Laboratory results as given in patent publication US20080145313A1, “Compositions and Methods for the Treatment and Prevention of Neoplastic Disorders” (Genesis Research & Development Corporation Limited, priority 2006, published 2008).

Experiments:
A549 cells = experiment: Growth inhibition of siRNA-transfected A549 cells, SYBR Green I DNA content; type: cell-based, human; conditions: A549 cells, 10 nM siRNA, DNA content 96 hours after transfection, transporter gene targets
Procedure, shortened: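 Growth read-out: cellular DNA quantified with SYBR Green I (485/535 nm) 96 h after transfection, cells frozen, thawed and lysed in PBS/1% Triton X-100, pH 7. Cells (A549, 5×10^3 cells/cm^2) received 10 nM siRNA by RNAiMAX; non-specific siRNA served as control; triplicate wells averaged.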

[1] = test system: target transcript mRNA in A549 cells; experiment: Level of mRNA of target transcript in A549 cells by quantitative RT-PCR (Tables 12 and 13); type: cell-based, human; conditions: 24 h post-transfection; for mRNA knockdown of transporter gene target transcript, 0.1 nM: 0.1 nM siRNA; for mRNA knockdown of transporter gene target transcript, 1 nM: 1 nM siRNA
Procedure, shortened: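 Target mRNA was measured by SYBR Green quantitative RT-PCR using random-primed cDNA, normalised to HPRT and Lamin. Samples came from A549 cells 24 h post-transfection with 0.1, 1.0 or 10 nM siRNA.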

Substance	Growth Inhibition in A549 cells by 10 nM siRNA (A549 cells)	mRNA knockdown of transporter gene target transcript, 0.1 nM [1]	mRNA knockdown of transporter gene target transcript, 1 nM [1]	mRNA knockdown of transporter gene target transcript, 10 nM ([1]; 10 nM siRNA)
SEQ ID NO: 4935: siRNA targeting SLC29A2 (ENT2) (chain 1 TAACACACGATGGACATGAGGATGC; chain 2 UAACACACGAUGGACAUGAGGAUGC; chemistry not given here; one strand in two spellings)	− (no growth inhibition)	+ (50-70% mRNA knockdown)	+ (50-70% mRNA knockdown)	–
SEQ ID NO: 4938: siRNA targeting ATP2B1 (PMCA1) (chain 1 AAATCTTGTCTATCCTCTCTTGCTC; chain 2 AAAUCUUGUCUAUCCUCUCUUGCUC; chemistry not given here; one strand in two spellings)	− (no growth inhibition)	+ (50-70% mRNA knockdown)	++ (70-90% mRNA knockdown)	–
SEQ ID NO: 4891: siRNA targeting SLC1A5 (ASCT2) (chain 1 TCTACATTGAGGACGGTACAGGACC; chain 2 UCUACAUUGAGGACGGUACAGGACC; Antisense strand given in DNA and RNA notation, chemistry not given here; one strand in two spellings)	− (no growth inhibition)	++ (70-90% mRNA knockdown)	++ (70-90% mRNA knockdown)	–
SEQ ID NO: 4959: siRNA targeting ATP6V1E1 (chain 1 TGGTCAATTTGGACATCAACATCGT; chain 2 UGGUCAAUUUGGACAUCAACAUCGU; chemistry not given here; one strand in two spellings)	− (no growth inhibition)	− (<50% mRNA knockdown)	++ (70-90% mRNA knockdown)	–
SEQ ID NO: 4969: siRNA targeting ATP7B (chain 1 AAGGGAGCCACTTTGCTCTTGATGG; chain 2 AAGGGAGCCACUUUGCUCUUGAUGG; chemistry not given here; one strand in two spellings)	− (no growth inhibition)	− (<50% mRNA knockdown)	++ (70-90% mRNA knockdown)	–
SEQ ID NO: 4900: siRNA targeting SLC2A12 (GLUT12) (chain 1 TTGAAATATAGGCAGAAAGAATGCC; chain 2 UUGAAAUAUAGGCAGAAAGAAUGCC; Antisense strand given in DNA and RNA notation, chemistry not given here; one strand in two spellings)	− (no growth inhibition)	++ (70-90% mRNA knockdown)	++ (70-90% mRNA knockdown)	–
SEQ ID NO: 4961: siRNA targeting ATP6V1F (chain 1 ATGTCATCCCGGTTTAGAAATTGCC; chain 2 AUGUCAUCCCGGUUUAGAAAUUGCC; chemistry not given here; one strand in two spellings)	− (no growth inhibition)	++ (70-90% mRNA knockdown)	++ (70-90% mRNA knockdown)	–
SEQ ID NO: 4925: siRNA targeting SLC25A1 (CIC) (chain 1 TAATCACATCCAGAGGAGTGTTTCC; chain 2 UAAUCACAUCCAGAGGAGUGUUUCC; chemistry not given here; one strand in two spellings)	− (no growth inhibition)	++ (70-90% mRNA knockdown)	++ (70-90% mRNA knockdown)	–
SEQ ID NO: 4971: siRNA targeting ABCC4 (MRP4) (chain 1 CAATAATGGTGTTCAATCTGTGTGC; chain 2 CAAUAAUGGUGUUCAAUCUGUGUGC; chemistry not given here; one strand in two spellings)	− (no growth inhibition)	− (<50% mRNA knockdown)	++ (70-90% mRNA knockdown)	–
SEQ ID NO: 4904: siRNA targeting SLC7A11 (xCT) (chain 1 AGATAAATCAGCCCAGCAACTGCCA; chain 2 AGAUAAAUCAGCCCAGCAACUGCCA; Antisense strand given in DNA and RNA notation, chemistry not given here; one strand in two spellings)	− (no growth inhibition)	+ (50-70% mRNA knockdown)	++ (70-90% mRNA knockdown)	–
SEQ ID NO: 4977: siRNA targeting ABCB1 (MDR1) (chain 1 AAACGATGAGCTATCACAATGGTGG; chain 2 AAACGAUGAGCUAUCACAAUGGUGG; chemistry not given here; one strand in two spellings)	− (no growth inhibition)	− (<50% mRNA knockdown)	− (<50% mRNA knockdown)	–
SEQ ID NO: 4953: siRNA targeting ATP6V1B2 (chain 1 ATGATATCAAGGAAGTCTTCGGCCA; chain 2 AUGAUAUCAAGGAAGUCUUCGGCCA; chemistry not given here; one strand in two spellings)	++ (inhibits by at least 75%)	− (<50% mRNA knockdown)	+ (50-70% mRNA knockdown)	–
SEQ ID NO: 4962: siRNA targeting ATP6V1F (chain 1 TGGAGTCCTTGGCGGCGTCATATGG; chain 2 UGGAGUCCUUGGCGGCGUCAUAUGG; chemistry not given here; one strand in two spellings)	− (no growth inhibition)	− (<50% mRNA knockdown)	+ (50-70% mRNA knockdown)	–
SEQ ID NO: 4973: siRNA targeting ABCC5 (MRP5) (chain 1 TAAGATGGCAACAACGGGTCCTCCA; chain 2 UAAGAUGGCAACAACGGGUCCUCCA; chemistry not given here; one strand in two spellings)	− (no growth inhibition)	− (<50% mRNA knockdown)	− (<50% mRNA knockdown)	–
SEQ ID NO: 4933: siRNA targeting SLC29A1 (ENT1) (chain 1 TGGAGACTGAAACTCCAGATTCCTC; chain 2 UGGAGACUGAAACUCCAGAUUCCUC; chemistry not given here; one strand in two spellings)	+ (inhibits by at least 50%)	− (<50% mRNA knockdown)	++ (70-90% mRNA knockdown)	++ (70-90% mRNA knockdown)
SEQ ID NO: 4894: siRNA targeting SLC2A1 (GLUT1) (chain 1 TGACACTTCACCCACATACATGGGC; chain 2 UGACACUUCACCCACAUACAUGGGC; Antisense strand given in DNA and RNA notation, chemistry not given here; one strand in two spellings)	− (no growth inhibition)	− (<50% mRNA knockdown)	++ (70-90% mRNA knockdown)	–
SEQ ID NO: 4913: siRNA targeting SLC19A2 (ThTr1) (chain 1 AATACAAGGAGACGGTCTGGCTTGG; chain 2 AAUACAAGGAGACGGUCUGGCUUGG; Antisense strand given in DNA and RNA notation, chemistry not given here; one strand in two spellings)	− (no growth inhibition)	++ (70-90% mRNA knockdown)	++ (70-90% mRNA knockdown)	–
SEQ ID NO: 4937: siRNA targeting ATP2B1 (PMCA1) (chain 1 ATTTATGTAAGCTTGAACGACTGTC; chain 2 AUUUAUGUAAGCUUGAACGACUGUC; chemistry not given here; one strand in two spellings)	− (no growth inhibition)	++ (70-90% mRNA knockdown)	++ (70-90% mRNA knockdown)	–
SEQ ID NO: 4928: siRNA targeting SLC25A10 (DIC) (chain 1 AATAAAGCTGGCGACAAAGTGAGTG; chain 2 AAUAAAGCUGGCGACAAAGUGAGUG; chemistry not given here; one strand in two spellings)	++ (inhibits by at least 75%)	++ (70-90% mRNA knockdown)	++ (70-90% mRNA knockdown)	–
SEQ ID NO: 4975: siRNA targeting ABCC5 (MRP5) (chain 1 ATTCTGAGCTGAGAATGCATGGAGG; chain 2 AUUCUGAGCUGAGAAUGCAUGGAGG; chemistry not given here; one strand in two spellings)	++ (inhibits by at least 75%)	− (<50% mRNA knockdown)	+ (50-70% mRNA knockdown)	–
